Results on four compounds are retold here after patent US20240271082A1, “[…]-MODIFIED SAC[…] STRAINS AS PR[…] […] AGENTS” (Fzata, Inc., priority 2021, published 2024).

For data set [1], the target named is hTNF-α (Homo sapiens, UniProt P01375). In words: Neutralization of human TNF-α cytotoxicity on L929 cells. The following applies: read-out: IC50, block hTNF-α-induced cytotoxicity.
Experimental: After 24h incubation, the antibody-mediated inhibitions of cytotoxicity were measured.
Data set [2] relates to S. boulardii (Sb). In words: Methotrexate effective dose in S. boulardii. In kind it is cell-based. The following applies: MTX alone, up to 500 nM, 24 hour reading. The method, then: Cells were seeded at OD=0.2, 24 hour reading.
The subject of data set [3] is patients with COVID-19 pneumonia and systemic hyperinflammation. Particulars: human, in vivo; cited from earlier work.
Data set [4] relates to Crohn's disease. The following applies: systemic administration; cited from earlier work.

Sequence of hTNF-α (P01375 77-233 limits assumed): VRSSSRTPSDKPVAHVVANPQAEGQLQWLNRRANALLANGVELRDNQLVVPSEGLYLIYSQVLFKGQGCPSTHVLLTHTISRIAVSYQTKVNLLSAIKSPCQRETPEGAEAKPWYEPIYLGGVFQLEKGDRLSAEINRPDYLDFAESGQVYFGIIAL

For the compound Adalimumab [Humira], the 50% inhibitory concentration (IC50) in data set [1] turned out to be 0.028 nM.

Take `CN(Cc1cnc2nc(N)nc(N)c2n1)c1ccc(C(=O)N[C@@H](CCC(=O)O)C(=O)O)cc1` [MTX, methotrexate]: in data set [2], the “growth inhibition of S. boulardii” value is recorded as “not enough to cause an effect on growth inhibition”.

With “Mavrilimumab: investigational fully-human monoclonal antibody that targets GM-CSF receptor alpha”, the “proportion of patients alive and off oxygen therapy at day 14” value in data set [3] is listed as “hyperinflammation. Unfortunately, there was no significant difference”.

Take “infliximab: anti-TNF monoclonal antibody”: the “clinical response in Crohn's disease” value in data set [4] was “drastic clinical improvement”.
